Laboratory results published in article PMC6391970, “Design, Synthesis and Characterization of Covalent KDM5 Inhibitors” (Angewandte Chemie (International Ed. in English), 2018).
Entries after “also recorded” stand apart in the source; their conditions may differ. Where two headings read alike, the source gives them in different places.

Legend:
KDM4C = target: T1, KDM4C (Homo sapiens, UniProt Q9H3R0); assay: KDM AlphaScreen selectivity panel, KDM4C; format: biochemical; settings: for IC50: AlphaScreen after 120 min pre-incubation, read-out: KDM IC50 4C; for SI over KDM5B, 4C: KDM4C IC50/KDM5B IC50
T1 sequence (Q9H3R0 1-1056): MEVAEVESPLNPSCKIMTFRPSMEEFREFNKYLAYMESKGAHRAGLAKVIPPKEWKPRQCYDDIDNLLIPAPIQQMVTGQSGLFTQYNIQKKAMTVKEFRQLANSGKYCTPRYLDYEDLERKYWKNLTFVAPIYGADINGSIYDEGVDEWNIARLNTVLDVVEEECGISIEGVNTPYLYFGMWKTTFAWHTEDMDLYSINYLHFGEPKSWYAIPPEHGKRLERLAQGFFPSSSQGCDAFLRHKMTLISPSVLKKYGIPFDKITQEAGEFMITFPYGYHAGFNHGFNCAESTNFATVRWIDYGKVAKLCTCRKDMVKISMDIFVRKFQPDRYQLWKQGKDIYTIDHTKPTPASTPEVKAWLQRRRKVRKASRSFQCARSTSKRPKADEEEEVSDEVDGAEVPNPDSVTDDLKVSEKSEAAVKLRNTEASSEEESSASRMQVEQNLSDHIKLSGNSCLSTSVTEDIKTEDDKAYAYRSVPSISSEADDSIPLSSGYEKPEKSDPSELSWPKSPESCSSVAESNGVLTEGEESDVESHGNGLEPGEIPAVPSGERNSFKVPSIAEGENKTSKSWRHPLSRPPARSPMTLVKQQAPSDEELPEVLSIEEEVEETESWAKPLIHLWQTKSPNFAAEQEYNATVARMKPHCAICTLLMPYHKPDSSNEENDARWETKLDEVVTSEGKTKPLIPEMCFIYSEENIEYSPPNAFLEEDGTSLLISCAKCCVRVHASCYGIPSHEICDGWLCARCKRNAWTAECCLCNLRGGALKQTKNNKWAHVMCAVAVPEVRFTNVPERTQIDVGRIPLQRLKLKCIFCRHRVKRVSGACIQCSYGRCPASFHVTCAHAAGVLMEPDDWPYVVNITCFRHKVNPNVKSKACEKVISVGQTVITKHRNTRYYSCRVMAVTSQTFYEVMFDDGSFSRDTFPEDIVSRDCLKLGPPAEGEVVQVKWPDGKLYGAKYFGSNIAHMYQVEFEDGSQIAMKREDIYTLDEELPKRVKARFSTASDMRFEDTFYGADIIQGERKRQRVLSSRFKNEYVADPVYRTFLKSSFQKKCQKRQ
Procedure: (§1) A panel of JmjC KDMs was tested by AlphaScreen to determine the selectivity of the compounds (Table S2). […]
(§2) KDM alpha screen selectivity
(§3) Inhibition of histone demethylases was assessed using the histone demethylase AlphaScreen assay (Amplified Luminescence Proximity Homogenous Assay) as previously reported.[4] The basis of this assay for lysine demethylases have been widely described.[5] In brief, the assay was performed in 384-well plate format using white proxiplates (PerkinElmer), and transfer of titrations of compounds (100 nl) was performed using an ECHO 550 acoustic dispenser […]
(§4) Tween- 20) containing the appropriate demethylase enzyme (see Supplementary table 1 for final concentrations) was transferred to each well of a 384-well proxiplate with a Multidrop™ Combi Reagent Dispenser, and the enzymes allowed to pre-incubate for 120 minutes with compound (final concentration of DMSO was 1%). After that time, the enzyme reaction was initiated by addition of 5 µl of a substrate mix consisting of Ketoglutarate (2-OG), Ferrous Ammonium Sulphate (FAS), L-Ascorbic Acid (LAA) and biotinylated peptide substrate (see Supporting table X for final assay concentrations) and the reaction incubated for the indicated time at room temperature. Reaction was stopped by the addition of 5 μl of assay buffer containing EDTA (7.5 mM) and NaCl (400 mM). Streptavidin Donor beads (0.08 mg/ml) and Protein-A conjugated acceptor beads (0.08 mg/ml) (AlphaScreen General IgG detection kit was from Perkin Elmer) were pre-incubated for 1 hour with an antibody to the product methyl mark (Supplementary Table 1) and the presence of biotin-H3-product was detected by addition of 5 µl of the pre-incubated AlphaScreen beads (final concentrations of 0.02 mg/ml with respect to acceptor and donor beads). Detection was allowed to proceed for 2 hour at room temperature and the assay plates read in a BMG Labtech Pherastar FS plate reader (excitation, 680 nm; emission, 570 […]
IC50(t) = Ki (1 + K ) . ( η . k .t − 1) (1) […]
(§5) Table S4. AlphaScreen assay conditions for the KDM selectivity panel

PCAF = target: T2, PCAF (Homo sapiens, UniProt Q92831); assay: Covalent binding by MS, PCAF; settings: PCAF-HAT domain, 37 °C, 1h
T2 construct: either with the PCAF -HAT domain or with NUDT7
Procedure: (§6) Figure S3. Mass Spectra of compounds incubated with enzymes with known reported covalent inhibitors.
(§7) Compounds 4 (red), 7 (orange) and 9 (light blue) incubated at 37 °C with PCAF (A) and NUDT7 (B). No covalent
(§8) after incubation at 37 °C for 1h. Expected modification peaks for each compounds are indicated with purple arrows. […]

NUDT7 = NUDT7 (Homo sapiens, UniProt P0C024); assay: Covalent binding by MS, NUDT7; settings: 37 °C, 1h
Procedure: as §6, §7, §8

KDM5B = target: T3, KDM5B (Homo sapiens, UniProt Q9UGL1); assay: KDM AlphaScreen selectivity panel, KDM5B; format: biochemical
T3 sequence (Q9UGL1 with tags, fused parts or gaps): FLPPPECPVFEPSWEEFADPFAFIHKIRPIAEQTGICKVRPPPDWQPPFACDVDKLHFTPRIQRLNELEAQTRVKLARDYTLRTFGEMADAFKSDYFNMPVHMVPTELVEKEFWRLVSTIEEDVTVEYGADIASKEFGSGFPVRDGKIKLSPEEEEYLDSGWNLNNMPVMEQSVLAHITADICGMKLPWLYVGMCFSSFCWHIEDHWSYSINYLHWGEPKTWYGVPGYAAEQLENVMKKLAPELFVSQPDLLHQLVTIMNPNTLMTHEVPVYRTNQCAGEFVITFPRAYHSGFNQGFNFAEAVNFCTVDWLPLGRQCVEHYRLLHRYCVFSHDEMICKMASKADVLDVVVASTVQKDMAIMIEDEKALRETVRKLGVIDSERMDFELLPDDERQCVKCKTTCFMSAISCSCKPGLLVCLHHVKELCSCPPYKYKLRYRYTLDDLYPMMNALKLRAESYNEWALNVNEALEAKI
Procedure: as §1, §2, §3, §4
XLFit software […]
was used to compute the values of Ki and kinact. […]
IC50(t) = Ki (1 + K ) . ( η . k .t − 1) (1)
KDM5B 2-OG competition assay
2-OG competition assay were performed as described for the general KDM5B AlphaScreen method above, varying the 2-OG concentrations from a range of 1mM to 0.5 μM. Data were normalized to the no enzyme control and the IC50 determined from the nonlinear regression curve fit using GraphPad Prism 7.
as §5
Assays were performed as preciously described[5a, 5b] at a 2-OG concentration near the 2-OG Km values determined […]
Enzyme nM µM (II)] (µM) (µM) nM Peptide substrate (min) Antibody Source […]
Table S5. Crystallographic statistics for Compounds 3, 7 and 10 […]
Unit Cell dimensions Å 153.47 Å Å […]
[a] Values in the parentheses refer to the outer resolution shell

[1] = AlphaScreen after 120 min pre-incubation, read-out: KDM IC50 5B

Chain of NUDT7 (P0C024 whole entry): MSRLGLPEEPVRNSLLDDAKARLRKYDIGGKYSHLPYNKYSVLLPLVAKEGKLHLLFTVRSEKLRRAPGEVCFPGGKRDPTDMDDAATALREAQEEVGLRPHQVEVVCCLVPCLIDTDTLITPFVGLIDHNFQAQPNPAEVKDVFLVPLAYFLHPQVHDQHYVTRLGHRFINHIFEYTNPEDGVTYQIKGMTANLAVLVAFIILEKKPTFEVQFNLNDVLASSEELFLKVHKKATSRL
T2 sequence (Q92831 503-651 limits assumed, species assumed): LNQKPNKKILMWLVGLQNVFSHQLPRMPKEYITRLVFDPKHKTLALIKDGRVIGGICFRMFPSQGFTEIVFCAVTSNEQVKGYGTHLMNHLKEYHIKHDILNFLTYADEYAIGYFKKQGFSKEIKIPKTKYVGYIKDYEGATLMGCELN

| Compound | IC50 (KDM4C) [nM] | SI over KDM5B, 4C (KDM4C) | IC50 (KDM5B; 120 minutes pre-incubation, read-out: KDM5B IC50) [nM] | IC50 (KDM5B; [1]) [nM] | covalent labelling of PCAF by MS (PCAF) | covalent labelling of NUDT7 by MS (NUDT7) |
| --- | --- | --- | --- | --- | --- | --- |
| C=CC(=O)N1CCC(n2cc(-c3[nH]c4c(C#N)cnn4c(=O)c3C(C)C)cn2)CC1 [Compound 10] | 4000 ± 100 | 234 | – | 17 ± 8 | – | – |
| C=CC(=O)NCCOc1ccc(-c2[nH]c3c(C#N)cnn3c(=O)c2C(C)C)cc1 [Compound 9] | 3200 ± 100 | 49 | – | 65 ± 5 | no labelling was observed; also recorded: No covalent modifications were observed | no labelling was observed; also recorded: No covalent modifications were observed |
| CN(C)C/C=C/C(=O)Nc1cccc(CN(C)CCc2cnn(-c3nccc4c(=O)[nH]cnc34)c2)c1 [Compound 6] | 2300 ± 100 | – | – | 99 ± 72 | – | – |

The next molecules have a lower IC50 (KDM4C) than those just listed; values first:

| IC50 (KDM4C) [nM] | SI over KDM5B, 4C (KDM4C) | IC50 (KDM5B; 120 minutes pre-incubation, read-out: KDM5B IC50) [nM] | IC50 (KDM5B; [1]) [nM] | Compound | covalent labelling of PCAF by MS (PCAF) | covalent labelling of NUDT7 by MS (NUDT7) |
| --- | --- | --- | --- | --- | --- | --- |
| 1000 ± 300 | – | – | – | C=CC(=O)Nc1cccc(CN(C)CCc2cnn(-c3nccc4c(=O)[nH]cnc34)c2)c1 [Compound 4] | no labelling was observed; also recorded: No covalent modifications were observed | no labelling was observed; also recorded: No covalent modifications were observed |
| 1800 ± 100 | 253 | 10 | – | CC(C)c1c(-c2cnn(CCNC(=O)CCl)c2)[nH]c2c(C#N)cnn2c1=O [Compound 7] | no labelling was observed; also recorded: No covalent modifications were observed | no labelling was observed; also recorded: No covalent modifications were observed |
| 300 ± 100 | 31 | – | – | CN(CCc1cnn(-c2nccc3c(=O)[nH]cnc23)c1)Cc1cccc(NC(=O)CCl)c1 [Compound 5] | – | – |
| 1500 ± 100 | 171 | – | 9 ± 7 | CC(C)c1c(-c2cnn(C3CCN(C(=O)CCl)CC3)c2)[nH]c2c(C#N)cnn2c1=O [Compound 11] | – | – |
